Where two headings read alike, the source gives them in different places. Values belong to the compound of their own block, whether it stands above or below them.
Key:
lymphocytes = experiment: mixed lymphocyte reaction (MLR), human lymphocytes (FIG. 12); format: cell-based
Protocol: This example illustrates an inhibitive effect of compound no. 1206 in a mixed lymphocyte reaction (MLR). This MNR is used to screen potentially immunosuppressive drugs. Lymphocytes (2×10^5) from normal human donors are grown for 6 days in the presence and absence (control) of inventive compound no. 1206. Tritiated thymidine is added and the lymphocytes grown for a final 6 hours. Incorporation of the tritiated thymidine occurs when the cells are in cell cycle. […] An experimentally determined IC50 value for compound no. 1206 is 70 μM.

[1] = system: tumor necrosis factor (TNF) levels; conditions: cited from earlier work
[2] = system: polymorphonuclear leukocytes; conditions: cited from earlier work; for chemotaxis in polymorphonuclear leukocytes: in response to a stimulator of chemotaxis
[3] = system: PAPH (phosphatidic acid phosphohydrolase); experiment: blocking of PAPH in a specific activation pathway; format: cell-based; conditions: pathway not involving PI; human mesangial cells, TNF
Description: The compounds of the invention, include inhibitors of subspecies of LPAAT in PAPH enzymes with substrate specificity for intermediates with 1,2-diunsaturated and 1-alkyl, 2-unsaturated subspecies. One representative example of such an inhibitor (although not within the genus of inventive compounds) is PTX. […] It should be emphasized that the compounds of the invention affect that subset of PAPH and LPAAT that relates to substrates with unsaturated fatty acids other than arachidonate in the sn-2 position, not the housekeeping forms of these enzymes that serve the PI pathway.

[4] = system: LPS-induced TNF release in whole human blood; experiment: LPS-induced TNF release in whole human blood (FIG. 14); format: cell-based; conditions: LPS 10 ng/ml, read-out: inhibition of TNF-α induction
Protocol: This example illustrates inhibitive effects of the inventive compounds on LPS-induced TNF release. Data collected is reported as percent inhibition of LPS induced TNF release in whole human blood as compared with control values of TNF release.
In this assay, whole blood was collected from a healthy human donor into Vacutainer tubes containing ACD citrate anti-coagulant. Compounds to be tested were diluted in RPMI medium and added (5 μl) to tubes containing whole blood (225 μl). The tubes were mixed and incubated for a maximum of 1 hour at 37° C. LPS Salmonella abortus equi was diluted in RPMI and added to samples at 20 μl per tube (10 ng/ml final concentration). The prepared tubes were mixed and incubated for 4-6 hours at 37° C. The reaction was terminated by adding 750 μl of RPMI to each tube, then centrifuged to remove cells. Supernatants are collected and stored overnight at 4° C. Supernatant samples are assayed for TNF release using commercial immunoassay kits.

thymocytes = experiment: IL-2 (ConA co-stimulated) induced proliferation of thymocytes; format: cell-based, mice; conditions: Mus musculus, Thymocyte, 96 h; Table II; ConA 0.25 ug/ml / IL2 20 ng/ml, 4 days
Protocol: This example illustrates the effects of inventive compounds nos. 1105, 1114, 1413, 1439, 1594, 2518, 2548R, 2548S, 2562 and 3503 as effective inhibitors of IL-2 induced proliferation of thymocytes. Single cell suspensions of thymus gland cells obtained from 4-6 week old mice were prepared. Two-hundred thousand cells were plated into individual wells of flat-bottom 96-well plates in RPMI-1640-10% FCS medium. The invention compounds were then added to the wells at varying concentrations and the cells incubated for 1-2 hours at 37° C.
Following this pre-incubation a mixture of Concanavalin A (ConA) and Interleukin-2 (IL2) was added to the experimental wells at a final concentration of (0.25 ug/ml ConA)/(20 ng/ml IL2). Appropriate positive and negative controls were set up on each plate. Each variable was set up in quadruplicate.
The plates were incubated for 4 days at 37° C. in a humidified CO2 incubator. On day 4 the wells were pulsed with 1 μCi of tritiated thymidine(3H-TdR) and the plates incubated for an additional 4 hours. The plates were then harvested and the incorporation of 3H-TdR was determined in a liquid scintillation counter. From the CPM obtained from each experimental well an IC-50 for each inventive compound tested was determined. Therefore, a lower reported IC-50 value is indicative of greater inhibition of IL-2-induced proliferation of thymocytes. Table II illustrates IC-50 values (in μM) for inventive compounds inhibiting proliferation at very low concentrations of compound.

[5] = system: normal human bone marrow stromal cells (MSC); experiment: human bone marrow stromal cell (MSC) proliferation in response to PDGF BB and IL-1α; format: cell-based; conditions: Table III, PDGF BB 50 ng/ml and IL-1α 10 ng/ml
Protocol: This example illustrates the effects of inventive compounds nos. 1114, 1413, 1560, 1565, 1594, 2518, 2548R, 2548S and 3503 as effective inhibitors of normal human bone marrow stromal cells (MSC) proliferation in response to Platelet Derived Growth Factor BB (PDGF B) and IL-1α (50 and 10 ng/ml, respectively).
MSC were obtained and malintained in exponential growth, released from a growth plate with trypsin and plated into 96 well tissue culture plates in the presence of Fibroblast Growth Factor (FGFβ) for 48 hours. Growth media were removed and the cells were washed once with serum free media. The cells were then incubated 20-24 hours in serum free media.
After incubation, inventive compounds were added to the cells at the appropriate concentration and then the cells again incubated for 1 hour. PDGF B and IL-1α were added to the cells along with 3H-thymidine and the cells again incubated for an additional 24 hours.
After 24 hours of incubation, the cells were then harvested to assess incorporation of ^3 H-thymidine into DNA (proliferation). From each harvested cell culture, an IC-50 for each inventive compound tested was determined. Therefore, a lower reported IC-50 value is indicatilve of greater activity of the invention compounds in inhibiting MSC proliferation. Table III illustrates IC-50 values (in μM) for invention compounds inhibiting MSC proliferation at very low concentrations of compound.

cerebral blood flow = conditions: in vivo; cited from earlier work

- IC50 (lymphocytes): 70 µM
Structure (SMILES): Cn1c(=O)c2ccccc2n(CCCCC2CO2)c1=O (centres unmarked) [Compound 1206, 1-(5,6-Oxidohexyl)-3-methylbenzoyleneurea]

Structure (SMILES): CC(=O)CCCCn1c(=O)c2c(ncn2C)n(C)c1=O [PTX, 1-(5-oxohexyl)-3,7-dimethylxanthine]
- TNF levels ([1]; normal volunteers): TNF levels were higher among PTX recipients
- TNF levels ([1]; with GM-CSF, patients undergoing allogeneic bone marrow transplant): decrease tumor necrosis factor (TNF) levels
- activity of certain cytokines to affect chemotaxis [2]: inhibit activity of certain cytokines to affect chemotaxis
- chemotaxis in polymorphonuclear leukocytes [2]: stimulate chemotaxis in polymorphonuclear leukocytes
- blocking of PAPH [3]: blocks PAPH in a specific activation pathway

Structure (SMILES): Cn1cnc2c1c(=O)n(CCCCCCCCCCC1CO1)c(=O)n2C (centres unmarked) [Compound 2518, 1-(11,12-Oxidodecyl)-3,7-dimethylxanthine]
- inhibition at 50 µM [4]: 35%
- IC50 (thymocytes): 3.4 µM
- IC50 [5]: 16.7 µM

Structure (SMILES): CC(O)CCCCn1c(=O)c2c(ncn2C)n(C)c1=O (centres unmarked) [Compound M1, 1-(5-hydroxyhexyl)-3,7-dimethylxanthine]
- cerebral blood flow (cerebral blood flow): increasing cerebral blood flow
- chemotaxis in polymorphonuclear leukocytes [2]: stimulate chemotaxis in polymorphonuclear leukocytes
